In patent US20240217979A1, “GluN2 Subunit Selective Antagonists of the N-Methyl-D-Aspartate Receptors” (Emory University, priority 2021, published 2024):

Key:
Format in all cases: cell-based
rat GluN1/GluN2C [1] = target: T1, rat GluN1/GluN2C (Rattus norvegicus, UniProt Q00961); test: Two-electrode voltage-clamp recording in Xenopus laevis oocytes expressing recombinant rat GluN1/GluN2C; settings: current ratio reported for 10 μM test compound (footnote c)
T1 construct: expressed in transfected cells; host or cells: Xenopus laevis oocytes (cRNA injection, GluN1/GluN2 ratio 1:2)
Experimental: (§1) Two-electrode voltage-clamp recording was performed in Xenopus laevis oocytes injected with mRNA to express recombinant rat GluN1/GluN2A, GluN1/GluN2B, GluN1/GluN2C, and GluN1/GluN2D. cDNAs for rat NMDA subunits GluN1-la (GenBank U08261; hereafter GluN1), GluN2A (GenBank D13211), GluN2B (GenBank U11419), GluN2C (GenBank M91563), and GluN2D (GenBank L31611) were provided by Drs. S. Heinemann from Salk Institute, S. Nakanishi from Kyoto University, and P. Seeburg from the University of Heidelberg. An automatic injector (Nanoject II, Drummond Scientific) was used for cRNA injection using the pipettes filled with mineral oil. The cRNA that transcribed in vitro via the mMessage Machine kit (Ambion) was diluted with nuclease-free water, and then injected at a GluN1/GluN2 ratio of 1:2. The oocytes were stored in Barth's solution that contained 88 mM NaCl, 5.0 mM Tris-HCl, 2.4 mM NaHCO3, 1.0 mM KCl, 0.84 mM MgSO4, 0.41 mM CaCl2), 0.33 mM Ca(NO3)2, 0.1 mg/ml gentamycin sulfate, 1.0 U/ml penicillin, and 1 μg/ml streptomycin at pH 7.4 and temperatures of 15-17° C. for two to five days before the two-electrode voltage-clamp recordings.
(§2) During recording, the oocytes were placed in a perfusion chamber and continually washed with the recording solution containing 90 mM NaCl, 1.0 mM KCl, 0.50 mM BaCl2, 0.005 mM EDTA, and 10 mM HEPES at pH 7.4 and a temperature of 23° C. Glass electrodes with a tip resistance of 0.5 to 2.5 MΩ were obtained from thin-walled glass capillary tubes. Voltage electrodes and current electrodes were filled with 0.3 M and 3.0 M KCl, respectively. The recordings were executed with the oocytes membrane potential holding at −40 mV by an OC-725 amplifier (Warner Instrument Co.). All compounds were dissolved in dimethyl sulfoxide (DMSO) as 20 mM stock solutions and further diluted to reach the desired concentration (0.05-0.5% (vol/vol) DMSO) in recording solution comprised of 30 µM glycine and 100 µM glutamate. In general, each compound was tested in multiple oocytes. To evaluate the inhibitory efficacy of the compounds, concentration-response curves were plotted using the average two-electrode voltage-clamp recording results and fitted by the following equation:
(§3) response=100/{1+[(inhibitor concentration)/IC50]^N} • where IC50 is the concentration of compound that inhibit half maximal of the current response and N is the Hill slope.

rat GluN1/GluN2C [2] = target: T2, rat GluN1/GluN2C (Rattus norvegicus, UniProt P35439+Q00961); test: as above; settings: for IC50: Tables 1 and 2, read-out: IC50 (μM) [95% Confidence Interval] GluN2C; for remaining activity at 30 µM: 30 μM test compound, current ratio, oocytes, read-out: I30 μM/Icontrol (mean ± SEM, %) GluN2C
T2 construct: expressed in transfected cells; host or cells: Xenopus laevis oocytes (cRNA injection, GluN1/GluN2 ratio 1:2)
Experimental: as §1, §2, §3

rat GluN1/GluN2A [3] = target: T3, rat GluN1/GluN2A (Rattus norvegicus, UniProt Q00959); test: Two-electrode voltage-clamp recording in Xenopus laevis oocytes expressing recombinant rat GluN1/GluN2A; settings: current ratio reported for 10 μM test compound (footnote c)
T3 construct: expressed in transfected cells; host or cells: Xenopus laevis oocytes (cRNA injection, GluN1/GluN2 ratio 1:2)
Experimental: as §1, §2, §3

rat GluN1/GluN2D [4] = target: T4, rat GluN1/GluN2D (Rattus norvegicus, UniProt P35439+Q62645); test: Two-electrode voltage-clamp recording in Xenopus laevis oocytes expressing recombinant rat GluN1/GluN2D; settings: for IC50: Tables 1 and 2, read-out: IC50 (μM) [95% Confidence Interval] GluN2D; for remaining activity at 30 µM: 30 μM test compound, current ratio, oocytes, read-out: I30 μM/Icontrol (mean ± SEM, %) GluN2D
T4 construct: expressed in transfected cells; host or cells: Xenopus laevis oocytes (cRNA injection, GluN1/GluN2 ratio 1:2)
Experimental: as §1, §2, §3

rat GluN1/GluN2D [5] = target: T5, rat GluN1/GluN2D (Rattus norvegicus, UniProt Q62645); test: as above; settings: for Current ratio I/Icontrol (mean ± SEM, %) GluN2D: current ratio reported for 10 μM test compound (footnote c); for Subunit Selectivity 2B IC50/2D IC50: ratio of GluN2B IC50 to GluN2D IC50; for Subunit Selectivity 2A IC50/2D IC50: ratio of GluN2A IC50 to GluN2D IC50
T5 construct: expressed in transfected cells; host or cells: Xenopus laevis oocytes (cRNA injection, GluN1/GluN2 ratio 1:2)
Experimental: as §1, §2, §3

rat GluN1/GluN2B [6] = target: T6, rat GluN1/GluN2B (Rattus norvegicus, UniProt Q00960); test: Two-electrode voltage-clamp recording in Xenopus laevis oocytes expressing recombinant rat GluN1/GluN2B
T6 construct: expressed in transfected cells; host or cells: Xenopus laevis oocytes (cRNA injection, GluN1/GluN2 ratio 1:2)
Experimental: as §1, §2, §3

rat GluN1/GluN2A [7] = target: T7, rat GluN1/GluN2A (Rattus norvegicus, UniProt P35439+Q00959); test: Two-electrode voltage-clamp recording in Xenopus laevis oocytes expressing recombinant rat GluN1/GluN2A; settings: for remaining activity at 30 µM: 30 μM test compound, current ratio, oocytes, read-out: I30 μM/Icontrol (mean ± SEM, %) GluN2A; for IC50: Tables 1 and 2, read-out: IC50 (μM) [95% Confidence Interval] GluN2A
T7 construct: expressed in transfected cells; host or cells: Xenopus laevis oocytes (cRNA injection, GluN1/GluN2 ratio 1:2)
Experimental: as §1, §2, §3

rat GluN1/GluN2B [8] = target: T8, rat GluN1/GluN2B (Rattus norvegicus, UniProt P35439+Q00960); test: Two-electrode voltage-clamp recording in Xenopus laevis oocytes expressing recombinant rat GluN1/GluN2B; settings: for remaining activity at 30 µM: 30 μM test compound, current ratio, oocytes, read-out: I30 μM/Icontrol (mean ± SEM, %) GluN2B; for IC50: Tables 1 and 2, read-out: IC50 (μM) [95% Confidence Interval] GluN2B
T8 construct: expressed in transfected cells; host or cells: Xenopus laevis oocytes (cRNA injection, GluN1/GluN2 ratio 1:2)
Experimental: as §1, §2, §3

[9] = current ratio reported for 10 μM test compound (footnote c)

T7 sequence (Q00959 23-1464, other chains not shown): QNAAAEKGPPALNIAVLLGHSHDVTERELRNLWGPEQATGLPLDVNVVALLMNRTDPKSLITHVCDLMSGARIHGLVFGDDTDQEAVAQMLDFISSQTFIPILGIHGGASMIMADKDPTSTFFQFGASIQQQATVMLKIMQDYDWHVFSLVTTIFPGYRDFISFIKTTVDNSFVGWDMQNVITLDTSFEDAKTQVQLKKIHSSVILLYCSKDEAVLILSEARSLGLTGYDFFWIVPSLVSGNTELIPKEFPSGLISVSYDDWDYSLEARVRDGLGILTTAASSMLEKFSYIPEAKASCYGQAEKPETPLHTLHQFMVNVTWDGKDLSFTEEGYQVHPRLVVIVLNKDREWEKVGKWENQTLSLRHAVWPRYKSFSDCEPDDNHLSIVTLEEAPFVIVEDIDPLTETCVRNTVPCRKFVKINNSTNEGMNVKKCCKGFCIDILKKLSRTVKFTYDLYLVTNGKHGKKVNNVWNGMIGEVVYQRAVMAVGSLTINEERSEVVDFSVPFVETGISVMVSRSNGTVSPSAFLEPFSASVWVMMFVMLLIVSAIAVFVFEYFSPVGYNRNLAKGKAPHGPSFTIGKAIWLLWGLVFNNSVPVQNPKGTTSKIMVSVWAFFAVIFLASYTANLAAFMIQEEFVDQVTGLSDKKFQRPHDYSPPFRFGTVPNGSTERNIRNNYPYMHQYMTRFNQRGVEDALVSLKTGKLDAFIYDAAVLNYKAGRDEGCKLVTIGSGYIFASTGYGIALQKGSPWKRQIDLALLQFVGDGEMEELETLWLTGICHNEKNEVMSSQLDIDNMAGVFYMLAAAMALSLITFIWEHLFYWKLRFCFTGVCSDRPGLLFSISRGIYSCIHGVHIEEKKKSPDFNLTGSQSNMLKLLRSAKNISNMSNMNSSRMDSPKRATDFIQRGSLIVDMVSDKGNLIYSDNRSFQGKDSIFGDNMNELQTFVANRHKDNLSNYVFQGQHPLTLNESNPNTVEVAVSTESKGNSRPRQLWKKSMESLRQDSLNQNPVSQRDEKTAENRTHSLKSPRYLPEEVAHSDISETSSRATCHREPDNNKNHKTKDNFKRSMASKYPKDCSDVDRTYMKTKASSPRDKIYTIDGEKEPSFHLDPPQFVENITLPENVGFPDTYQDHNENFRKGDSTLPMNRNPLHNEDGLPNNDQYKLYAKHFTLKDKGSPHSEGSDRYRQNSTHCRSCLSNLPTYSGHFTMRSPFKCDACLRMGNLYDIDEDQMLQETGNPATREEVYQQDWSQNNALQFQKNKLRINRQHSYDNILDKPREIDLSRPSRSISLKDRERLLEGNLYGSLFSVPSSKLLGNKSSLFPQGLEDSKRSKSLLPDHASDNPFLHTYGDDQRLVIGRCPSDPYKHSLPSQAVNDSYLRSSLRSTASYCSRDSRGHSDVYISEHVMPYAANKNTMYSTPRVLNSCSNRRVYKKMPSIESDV
T8 sequence (Q00960 27-1482, other chains not shown): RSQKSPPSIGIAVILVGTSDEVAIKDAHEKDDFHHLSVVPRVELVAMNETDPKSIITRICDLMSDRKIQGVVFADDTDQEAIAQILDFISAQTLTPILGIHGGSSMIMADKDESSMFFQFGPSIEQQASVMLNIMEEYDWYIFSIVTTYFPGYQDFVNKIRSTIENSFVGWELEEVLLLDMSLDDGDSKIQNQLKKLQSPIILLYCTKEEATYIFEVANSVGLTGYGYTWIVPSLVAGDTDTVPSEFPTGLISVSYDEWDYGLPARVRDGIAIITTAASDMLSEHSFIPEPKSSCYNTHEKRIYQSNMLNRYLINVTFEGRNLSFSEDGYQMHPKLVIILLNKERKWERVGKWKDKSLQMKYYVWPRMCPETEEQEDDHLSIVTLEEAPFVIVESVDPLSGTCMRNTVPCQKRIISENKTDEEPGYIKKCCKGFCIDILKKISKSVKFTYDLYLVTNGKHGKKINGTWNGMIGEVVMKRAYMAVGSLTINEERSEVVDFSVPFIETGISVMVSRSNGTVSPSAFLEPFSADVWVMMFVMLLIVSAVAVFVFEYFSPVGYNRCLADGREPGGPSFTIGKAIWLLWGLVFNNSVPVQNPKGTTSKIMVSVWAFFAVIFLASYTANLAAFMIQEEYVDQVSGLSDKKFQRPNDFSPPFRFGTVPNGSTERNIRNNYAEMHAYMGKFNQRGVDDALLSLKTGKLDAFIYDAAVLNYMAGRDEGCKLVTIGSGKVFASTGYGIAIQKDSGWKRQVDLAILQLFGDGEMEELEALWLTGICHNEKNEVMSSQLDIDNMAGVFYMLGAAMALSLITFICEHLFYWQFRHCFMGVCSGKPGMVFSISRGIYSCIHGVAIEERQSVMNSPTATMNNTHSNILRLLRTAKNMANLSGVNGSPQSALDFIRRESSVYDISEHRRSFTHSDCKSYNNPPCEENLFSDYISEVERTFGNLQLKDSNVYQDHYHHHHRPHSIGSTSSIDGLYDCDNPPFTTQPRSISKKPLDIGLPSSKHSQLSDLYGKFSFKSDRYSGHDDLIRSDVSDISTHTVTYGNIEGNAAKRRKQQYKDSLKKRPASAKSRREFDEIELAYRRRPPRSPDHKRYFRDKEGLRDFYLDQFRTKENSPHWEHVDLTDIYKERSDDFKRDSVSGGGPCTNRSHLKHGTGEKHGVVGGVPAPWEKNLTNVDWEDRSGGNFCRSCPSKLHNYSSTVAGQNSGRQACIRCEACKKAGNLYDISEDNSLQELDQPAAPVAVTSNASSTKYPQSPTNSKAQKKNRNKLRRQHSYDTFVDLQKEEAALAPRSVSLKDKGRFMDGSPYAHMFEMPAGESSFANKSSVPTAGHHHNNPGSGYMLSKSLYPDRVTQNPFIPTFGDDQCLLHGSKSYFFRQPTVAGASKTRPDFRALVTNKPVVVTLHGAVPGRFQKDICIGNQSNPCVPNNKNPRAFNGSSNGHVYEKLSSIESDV
T6 sequence (Q00960 27-1482, other chains not shown): as above

SMILES	Current ratio I/Icontrol (mean ± SEM, %) GluN2C (rat GluN1/GluN2C [1])	IC50 (rat GluN1/GluN2C [2]) [µM]	Current ratio I/Icontrol (mean ± SEM, %) GluN2A (rat GluN1/GluN2A [3])	IC50 (rat GluN1/GluN2D [4]) [µM]	Current ratio I/Icontrol (mean ± SEM, %) GluN2D (rat GluN1/GluN2D [5])	Current ratio I/Icontrol (mean ± SEM, %) GluN2B (rat GluN1/GluN2B [6]; [9])	remaining activity at 30 µM (rat GluN1/GluN2C [2]) [%]	remaining activity at 30 µM (rat GluN1/GluN2A [7]) [%]	remaining activity at 30 µM (rat GluN1/GluN2D [4]) [%]	Current ratio I/Icontrol (mean ± SEM, %) GluN2B (rat GluN1/GluN2B [6]; current ratio reported for 3 μM test compound (footnote d, Table 2))	Subunit Selectivity 2B IC50/2D IC50 (rat GluN1/GluN2D [5])	remaining activity at 30 µM (rat GluN1/GluN2B [8]) [%]	IC50 (rat GluN1/GluN2B [8]) [µM]	Subunit Selectivity 2A IC50/2D IC50 (rat GluN1/GluN2D [5])	IC50 (rat GluN1/GluN2A [7]) [µM]
O=C(O)CC(F)(F)C(=O)N1N=C(c2c(-c3ccc(Cl)cc3)c3ccncc3[nH]c2=O)CC1c1ccc(Cl)cc1 (stereo not drawn) [Compound 120, 4-[3-(4-Chlorophenyl)-5-[4-(4-chlorophenyl)-2-oxo-1H-1,7-naphthyridin-3-yl]-3,4-dihydropyrazol-2-yl]-3,3-difluoro-4-oxo-butanoic acid]	18 ± 1.0^c (n = 3, 11) %	2.1	77 ± 4.8^c (n = 2, 7) %	0.8	7.4 ± 0.9^c (n = 3, 10) %	82 ± 1.7^c (n = 2, 8) %									
O=C(O)CC(F)(F)C(=O)N1N=C(c2c(-c3ccc(Cl)cc3)c3ccsc3[nH]c2=O)CC1c1ccc(Cl)cc1 (stereo not drawn) [57(b), 4-[3-(4-Chlorophenyl)-5-[4-(4-chlorophenyl)-6-oxo-7H-thieno[2,3-b]pyridin-5-yl]-3,4-dihydropyrazol-2-yl]-3,3-difluoro-4-oxo-butanoic acid]		0.32		0.25			6.9 ± 2.5	86 ± 7.4	5.9 ± 2.7	88 ± 4.6^d (n = 1, 4) %					
Cc1cc(-c2ccc(Cl)cc2)c(C2=NN(C(=O)C(F)(F)CC(=O)O)C(c3ccc(Cl)cc3)C2)c(=O)[nH]1 (stereo not drawn) [Compound 55, 4-[3-(4-Chlorophenyl)-5-[4-(4-chlorophenyl)-6-methyl-2-oxo-1H-pyridin-3-yl]-3,4-dihydropyrazol-2-yl]-3,3-difluoro-4-oxo-butanoic acid]		14		12			29 ± 2	86 ± 4.4	26 ± 1.8		3	55 ± 3	41		
O=C(CCc1nnn[nH]1)N1N=C(c2c(-c3ccc(Cl)cc3)c3ccccc3[nH]c2=O)CC1c1ccc(Cl)cc1 (stereo not drawn) [Compound 109, 4-(4-Chlorophenyl)-3-[3-(4-chlorophenyl)-2-[3-(1H-tetrazol-5-yl)propanoyl]-3,4-dihydropyrazol-5-yl]-1H-quinolin-2-one]							2.3 ± 0.5	29 ± 4.1	2.4 ± 1.6		56	48 ± 1.9		42	
O=C(O)CC(F)(F)C(=O)N1N=C(c2c(-c3ccc(Br)cc3)c3ccsc3[nH]c2=O)CC1c1ccc(Cl)cc1 (stereo not drawn) [57(a), 4-[5-[4-(4-Bromophenyl)-6-oxo-7H-thieno[2,3-b]pyridin-5-yl]-3-(4-chlorophenyl)-3,4-dihydropyrazol-2-yl]-3,3-difluoro-4-oxo-butanoic acid]		0.56		0.43			22 ± 1.5	47.6 ± 5.5	19 ± 3		44	37.7 ± 3.5	19	24	11
Cc1cc(-c2ccc(Cl)cc2)c(C2=NN(C(=O)C(F)(F)CC(=O)O)C(c3ccc(Cl)cc3)C2)cn1 (stereo not drawn) [Compound 73, 4-[3-(4-Chlorophenyl)-5-[4-(4-chlorophenyl)-6-methyl-3-pyridyl]-3,4-dihydropyrazol-2-yl]-3,3-difluoro-4-oxo-butanoic acid]							111 ± 1.9	100 ± 2	110 ± 3.1			100 ± 2.7			
O=C(CCc1nccs1)N1N=C(c2c(-c3ccc(Cl)cc3)c3ccccc3[nH]c2=O)CC1c1ccc(Cl)cc1 (stereo not drawn) [Compound 123, 4-(4-Chlorophenyl)-3-[3-(4-chlorophenyl)-2-(3-thiazol-2-ylpropanoyl)-3,4-dihydropyrazol-5-yl]-1H-quinolin-2-one]	71 ± 4.8^c (n = 2, 8) %		96 ± 1.8^c (n = 2, 8) %		67 ± 5.1^c (n = 2, 8) %	94 ± 1.7^c (n = 2, 8) %									
Cc1[nH]c(=O)c(C2=NN(C(=O)C(F)(F)CC(=O)O)C(c3ccc(Cl)cc3)C2)c(-c2ccc(Cl)cc2)c1C (stereo not drawn) [Compound 56, 4-[3-(4-Chlorophenyl)-5-[4-(4-chlorophenyl)-5,6-dimethyl-2-oxo-1H-pyridin-3-yl]-3,4-dihydropyrazol-2-yl]-3,3-difluoro-4-oxo-butanoic acid]		1.9		2.6			2.7 ± 0.32	71 ± 5	7.9 ± 2.9			58 ± 2	47		42
O=C(O)CC(F)(F)C(=O)N1N=C(c2c(-c3ccc(Cl)cc3)c3cccnc3[nH]c2=O)CC1c1ccc(Cl)cc1 (stereo not drawn) [Compound 88, 4-[3-(4-Chlorophenyl)-5-[4-(4-chlorophenyl)-2-oxo-1H-1,8-naphthyridin-3-yl]-3,4-dihydropyrazol-2-yl]-3,3-difluoro-4-oxo-butanoic acid]		2.1		1.3			6.6 ± 0.9	49 ± 7.3	3.8 ± 0.6		52	71 ± 0.9	67	35	45
O=C(O)CC(F)(F)C(=O)N1N=C(c2c(-c3ccc(Cl)cc3)cc[nH]c2=O)CC1c1ccc(Cl)cc1 (stereo not drawn) [Compound 28, 4-[3-(4-Chlorophenyl)-5-[4-(4-chlorophenyl)-2-oxo-1H-pyridin-3-yl]-3,4-dihydropyrazol-2-yl]-3,3-difluoro-4-oxo-butanoic acid]		55		20			61 ± 1	104 ± 2.2	39 ± 1.7			96 ± 2.4			
O=C(O)CC(F)(F)C(=O)N1N=C(c2cnccc2-c2ccc(Cl)cc2)CC1c1ccc(Cl)cc1 (stereo not drawn) [Compound 29, 4-[3-(4-Chlorophenyl)-5-[4-(4-chlorophenyl)-3-pyridyl]-3,4-dihydropyrazol-2-yl]-3,3-difluoro-4-oxo-butanoic acid]		15		12			35 ± 0.84	74 ± 3.4	27 ± 2.3			79 ± 4.3			
O=C(O)CC(F)(F)C(=O)N1N=C(c2cnccc2-c2ccccc2)CC1c1ccc(Cl)cc1 (stereo not drawn) [Compound 15, 4-[3-(4-Chlorophenyl)-5-(4-phenyl-3-pyridyl)-3,4-dihydropyrazol-2-yl]-3,3-difluoro-4-oxo-butanoic acid]							91 ± 3.5	98 ± 4.1	74 ± 7.1			82 ± 1.1			
